Each structure is given as a SMILES string.

Data set [1] is described as follows: Pharmacokinetic analysis in mice after i.p. injection. Format: in vivo. The conditions noted are these: male, BALB/cJ, ip. The procedure:
The animal facilities and protocols were approved by Howard University Institutional Animal Care and Use Committee (IACUC). All experimental procedures were in accordance with the NIH Guidelines for the Care and Use of Laboratory Animals. BALB/cJ male mice (8 weeks old, 25–30 g) were purchased from Jackson Laboratory (Bar Harbor, ME, USA) and housed under pathogen-free conditions in HEPA-filtered cages and kept on a 12 h light/dark cycle. Compounds were administered to mice via intraperitoneal (i.p.) injection with maximum achievable doses of 30 mg/kg 1E7-03 (100 μl injection of 8 mM 1E7-03 in 80% DMSO/20% saline) and 100 mg/kg DP1-07 (100 μl injection of 100 mM DP1-07 in 40% propylene glycol/10% DMSO/50% saline). Blood samples were collected at different time points (15 min, 30 min, 1 hr, 3 hr, 6 hrs and 24 hrs) for each group (n=3 mice per group). For each sample, 20 μl of plasma was mixed with 80 μl cold acetone, and centrifuged at 13,000 rpm for 5 min. The supernatant was transferred to a clean test tube and dried in a SpeedVac concentrator. The residue was re-constituted in 50 μl of acetonitrile for LC-MS analysis. Calibration curves were prepared by spiking 1E7-03, DP1, DP3 and DP1-07 into the drug-free mouse plasma and subjected to similar sample extraction procedures. The plasma concentration–time profile of each analyte was constructed and pharmacokinetic parameters were determined by non-compartmental method using Phoenix WinNonlin Version 5.3 (Pharsight Corporation, Mountain View, CA).
(§1) A 10 μl aliquots from each sample were loaded to a LC-20AD nano HPLC system (Shimadzu Corporation, Columbia, MD, USA) coupled to LTQ XL Orbitrap mass spectrometer (Thermo Fisher Scientific) with the installed Xcalibur software (version 2.0.7, Thermo Fisher Scientific). Liquid chromatography was carried out on an in-house made nano-HPLC column (Polymicro Technologies Inc., Phoenix, AZ, USA) packed with reverse phase PolySulfoethyl A, 5μM, 200 Å (PolyLC Inc., Columbia, MD, USA). Mobile phase A was 0.1% formic acid in water and mobile phase B - 0.1% formic acid in acetonitrile. The elution was performed at a flow rate of 600 nl/min over 40 min using a multisegment linear gradient of mobile phase B as follows: 0–6.02 min, 1% B; 6.02–6.11 min, 1–2% B; 6.11–20 min, 2−80% B; 20–25 min, 80% B; 25–30 min, 80–85% B; 30–31 min, […]; 31–40 min, 2% B (v/v). The Orbitrap was operated under data-dependent acquisition mode. The spray voltage, capillary temperature and capillary voltage were set to 2.0 kV, 200 °C, and 39.5 V, respectively. Full-scan mass spectra were acquired in Orbitrap over 150−1500 m/z with a resolution of 30 000, followed by MS^n scans by CID activation mode. The precursor ions were fragmented with collision energy of 18 with activation Q of 0.25 and an activation time of 30 ms. Dynamic exclusion was enabled with a repeat count of 2, a repeat duration of 15 s, exclusion duration of 20 s, an exclusion list size of 50. The mass spectrometer was also operated in NL scan of m/z 18.01, 45.05, 71.03 and 72.02 and MRM mode. The MRM transitions were controlled by a segmented program in order to short the scan cycle and increase sensitivity.

The nature of data set [2]: 1E7-03 degradation in mouse plasma. The format is in vitro ADME. Conditions: for % of 1E7-03 degraded: mouse plasma, 10 μM. Here is the method: as §1
1E7-03 dissolved in DMSO (10 mM stock solution) was mixed with mouse plasma (Sigma-Aldrich), guinea pig plasma (Sigma-Aldrich), ferret plasma (BioreclamationIVT), monkey plasma (courtesy of Binhua Ling, PhD, Tulane University) and human plasma (collected from heathy volunteer by the Center for Sickle Cell Disease at Howard University) to the final concentration of 10 μM and incubated at 37°C. Aliquots were collected at different time points for up to 24 hrs. The resulting sample (60 μl) was mixed with 240 μl of cold acetone, vortexed for 2 min, kept at –20°C for 30 min, and then the precipitated protein was removed by centrifugation at 13,000 × g for 5 min. The supernatant was transferred to a clean test tube and evaporated to dryness using a SpeedVac concentrator. The residue reconstituted in 60 μl of acetonitrile for LC/FT-MS analysis. All experiments were run parallel in triplicates.

Data set [3] concerns the target T1, PP1 (Homo sapiens, UniProt P62136).
T1 construct: human PP1α (residues 7–300); His; made in house; host or cells: BL21 (DE3) Escherichia coli, co-expressed with GroEL/GroES chaperones
The data set is described as follows: SPR competition with pRb-Tat peptide for binding to PP1. Conditions: compounds at 1 μM; for fold reduction of the binding of pRb-Tat to PP1: pRb-Tat 10-100 nM. The procedure: The SPR measurements were conducted on Biacore T200 instrument (GE Healthcare, Piscataway, NJ) at 25°C. Recombinant PP1 was immobilized on a CM5 chip by amine coupling (GE Healthcare). PP1 (200 nM) was captured on flow cell 2 in 10 mM acetate buffer, pH 5.0, supplemented with 2 mM MnCl2. The average amount of PP1 immobilized on the surface was 3160 RU. Flow cell 1 was used as a reference surface to subtract background signal. Also injections of the buffer alone were used to provide double reference subtraction. To measure the direct binding of small molecules to PP1, the two flow cells of the sensor chip were primed with running buffer (0.01 M HEPES pH 7.4, 0.15 M NaCl, 0.005% v/v Surfactant P20, 1% DMSO and 2 mM MnCl2). For binding and kinetics experiments, all compounds were diluted in the running buffer, at 40 μM, 20 μM, 10 μM, 5 μM, 2.5 μM, 1.25 μM and 0 μM and then passed over the two flow cells at a flow rate of 100 μl/min for 60 sec. The number of response units was recorded after the subtraction of the reference flow cell's value (Fc2-1). Two repetitions were performed for each injection. Data were analyzed using the BiaEvaluation software of Biacore with a 1:1 binding model. […] All the small molecular weight compounds were used at 1 μM.

The mark [4] stands for this setting: mouse plasma after i.p. 100 mg/kg DP1-07, parent and products DP1-07P1, DP1-07P2.
Setting [5] is: mouse plasma after i.p. 30 mg/kg 1E7-03, parent and its metabolites DP1, DP3, mean, n=3.
The mark [6] stands for this setting: mouse plasma after i.p. 30 mg/kg 1E7-03, parent and metabolites DP1, DP3.
The mark [7] stands for this setting: mouse, plasma, 30 mg/kg, mouse plasma after i.p. 30 mg/kg 1E7-03, parent and metabolites DP1, DP3.

T1 sequence (P62136 7-300): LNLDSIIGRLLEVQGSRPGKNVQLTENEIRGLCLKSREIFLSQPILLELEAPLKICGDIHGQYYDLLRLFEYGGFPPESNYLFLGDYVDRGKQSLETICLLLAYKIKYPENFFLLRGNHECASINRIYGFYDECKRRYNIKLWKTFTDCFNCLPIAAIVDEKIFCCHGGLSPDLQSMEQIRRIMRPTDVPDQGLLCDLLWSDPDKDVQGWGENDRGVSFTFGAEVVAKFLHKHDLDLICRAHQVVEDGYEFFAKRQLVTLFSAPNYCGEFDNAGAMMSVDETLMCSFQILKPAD

Consider `COc1ccc(/C=C2\CCCc3c2nc2ccccc2c3C(=O)OC(C)C(=O)OC(C)(C)C)cc1OC` (stereo not drawn) [DP1-07], for which, in data set [1] (setting [4]), the AUC(0-t) – broadly, exposure summed from dosing to a finite time, without extrapolation to infinity – was 706 µM·h; the MRT last – broadly, the average time that molecules of a dose stay in the body – was found to be 10.7 h; the half-life (in general, the time in which the quantity being followed falls by half) was 14.3 h. Moreover, the Cmax (as a rule, the highest concentration seen after dosing) in data set [1] (mouse plasma after i.p. 100 mg/kg DP1-07, parent and products DP1-07P1, DP1-07P2 (quantified with DP1 and DP3 calibration curves)) came to 42.7 µM. For the same compound, in data set [1] (mouse, plasma, 100 mg/kg, mouse plasma after i.p. 100 mg/kg DP1-07, parent and products DP1-07P1, DP1-07P2), the Tmax (as a rule, the time at which the peak concentration occurs) was approximately 6 h. Further, the concentration at 24 h in data set [1] (mouse, plasma, i.p. 100 mg/kg DP1-07, 24 hrs, read-out: concentration present in murine blood 24 hrs post-injection) was 18 µM.
Take `CCNC(=O)NC(=O)C(C)OC(=O)c1c2c(nc3ccccc13)/C(=C/c1ccc(OC)c(OC)c1)CC2` (stereo not drawn) [1E7-03]: the “stability in mice and mouse plasma” value in data set [2] (in words) is reported as “not stable”. Further, the “% of 1E7-03 degraded” value in data set [2] (37°C, 2 hrs) stood at 40%. For the same compound, the “% of 1E7-03 degraded” value in data set [2] (37°C, 4 hrs) is “over 85%”. For the same compound, in data set [1] (setting [5]), the Cmax is 3.43 µM. In data set [1] (setting [6]), the area under the curve AUC(0-t) stood at 12.2 µM·h, the mean residence time (MRT last) came to 2.4 h and the half-life was 3.39 h. The Tmax in data set [1] (setting [7]) turned out to be 0.5 h. Besides, in data set [3], the “fold reduction of the binding of pRb-Tat to PP1” value (from here on “fold reduction”) was 2-2.5 fold.
In the case of `COc1ccc(/C=C2\CCc3c2nc2ccccc2c3C(=O)O)cc1OC` [DP3], the “level of degradation product in mouse plasma” value in data set [2] (10 μM 1E7-03 in mouse plasma, 37°C, up to 24 hrs) is on record as “low levels”. For the same compound, in data set [1] (setting [5]), the Cmax was found to be 3.61 µM. In data set [1] (setting [6]), the AUC(0-t) amounted to 30.7 µM·h, the MRT last stood at 4.39 h and the half-life is 2.44 h. The Tmax in data set [1] (setting [7]) worked out at 1 h. Moreover, in data set [3], the “fold reduction” value is given as 2-2.5 fold.
Turning to `COc1ccc(/C=C2\CCc3c2nc2ccccc2c3C(=O)OC(C)C(=O)O)cc1OC` (stereo not drawn) [DP1], the “time at which DP1 levels reached their maximum” value in data set [2] (10 μM 1E7-03 in mouse plasma, 37°C) amounted to 2 h. The Cmax in data set [1] (setting [5]) came out at 9.09 µM. Further, in data set [1] (setting [6]), the exposure AUC(0-t) is 124 µM·h, the MRT last is 4.98 h and the half-life was 3.2 h. For the same compound, the Tmax in data set [1] (setting [7]) was 3 h. Moreover, the “competition with pRb-Tat for binding to PP1” value in data set [3] (in words) is “best competitor”. In addition, in data set [3], the “fold reduction” value amounted to 10 fold.

These data come from article PMC5652740, “Inhibition of HIV-1 infection in humanized mice and metabolic stability of protein phosphatase-1-targeting small molecule 1E7-03” (Oncotarget, 2017).
